Measured values taken from PMC9034499, “RORγt agonist enhances anti-PD-1 therapy by promoting monocyte-derived dendritic cells through CXCL10 in cancers” (Journal of Experimental & Clinical Cancer Research : CR, 2022).

Tests used:
[1] = test system: mutated RORγt protein at key binding sites; test: Biacore binding to mutated RORγt LBD protein; parameters: species or system human
Description: Human nuclear receptor RORγt (residues 263–509)-GGG-SRC1 (SRC1 sequence: EKHKILHRLLQDS, Sangon Biotech, Shanghai). RORγt LBD was cloned in pET28a. Key residue mutations of RORγt LBD (such as PHE388, LEU391, CYS393, LEU396, ILE397, ILE400, CYS320, ALA321, LEU324, MET358, and PHE388) with LYC-55716 were cloned in pET28a. Key residue mutations of RORγt LBD (MET365, ALA368, PHE401, ILE400, ILE397, LEU396, TRP317, CYS320, LEU324, ALA327, TYR330, VAL331, MET358, and VAL361) with 8-074 were cloned in pET28a. The proteins were expressed in E. coli strain DE3. Then, the transformed E. coli culture was grown at 37 °C with 30 μg/mL Kanamycin LB (Luria–Bertani). When the OD600 of LB medium reached 0.6, the temperature was changed to 16 °C, and isopropyl-β-D-thiogalactopyranoside (IPTG, Beyotime, Shanghai, China) was added at a final concentration of 0.4 mM to induce protein expression for 16 h. After 16 h, the pellet was collected after centrifugation at 4,000 rpm for 15 min at 4 °C. […]
The RORγt protein was immobilized on a CM5 chip (GE Health, Chicago, USA) using Biaocre 8 K. A sensogram was obtained using different serial concentrations of 8-074 (5000 nM, 2500 nM, 1250 nM, 625 nM, 312.5 nM, 156.25 nM, 78.125 nM, and 39.0625 nM). […] Data were analyzed using Biacore Evaluation Software.

[2] = test system: Tc17 cells (CD8+ T cells); test: Murine Tc17 differentiation, flow cytometry; assay type: cell-based, mouse; settings: Tc17, intracellular staining, same concentration
Protocol: CD4^+ CD25^−CD62L^high cells were purified from C57BL/6 splenocytes using an EasySep Mouse Naïve CD4^+ T cell isolation kit from STEMCELL Technologies (Vancouver, Canada), and they were differentiated into Th17 cells (TGF-β, 2 ng/ml; IL-6, 20 ng/ml; Anti-IFN-γ, 10 μg/ml; Anti-IL-4, 10 μg/ml, BioLegend, San Diego, CA) in the presence of plate-bound anti-CD3 (5 μg/ml, BioLegend, San Diego, CA) and anti-CD28 (2 μg/ml, BioLegend, San Diego, CA). The cells were harvested and processed for cytokine analysis at the RNA or protein level using real-time qPCR, flow cytometry, and ELISA on day five. Alternatively, splenocytes from OT-I mice were activated using OVA-derived peptides SIINFEKL (50 ng/ml, Sangon Biotech, Shanghai, China) and polarized to Tc17 cells using cytokine TGF-β (2 ng/ml, BioLegend, San Diego, CA) and IL-6 (20 ng/ml, BioLegend, San Diego, CA) for four or five days.
Cells were stained with fluorochrome-labeled anti-mouse Ab such as CD45, CD3, CD4, CD8, Foxp3, IFN-γ, IL-17A, CD11b, CD11c, pAKT, pSTAT3, CCR6, or MHCII. […] Cells were acquired using the FACS Aria II machine and analyzed using FlowJo software.

hRORγt LBD = biological target: T1, hRORγt LBD (Homo sapiens, UniProt P51449); test: RORγt GAL4 cell-based reporter gene assay; settings: HEK293T host cells; read-out: EC50, RORγt agonist activity in Gal4 reporter gene assay
T1 construct: expressed in transfected cells; host or cells: HEK293T
T1 sequence (P51449 269-508 limits assumed): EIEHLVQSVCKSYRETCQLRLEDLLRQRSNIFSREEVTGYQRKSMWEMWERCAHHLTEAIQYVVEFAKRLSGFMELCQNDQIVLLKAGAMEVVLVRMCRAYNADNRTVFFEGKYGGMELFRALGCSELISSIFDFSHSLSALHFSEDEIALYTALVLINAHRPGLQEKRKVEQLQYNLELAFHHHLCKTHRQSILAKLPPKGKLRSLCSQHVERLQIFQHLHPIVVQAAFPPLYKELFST
Protocol: The hRORγt LBD coding sequence was inserted into a pBIND expression vector (Promega, E1581) to express the ROR-GAL4 binding domain chimeric receptors. This expression vector and a reporter vector (pGL4.35, which carries a stably integrated GAL4 promoter-driven luciferase reporter gene [luc2P/9XGAL4 UAS/Hygro]) were co-transfected into the HEK293T host cells. The assay was performed according to a previous study. EC50 of the sigmoidal fits were analyzed using Prism 5 and a four-parameter logistic fit equation, Y = bottom + (top–bottom) / (1 + 10(logEC50 − X) × hill slope). "X" is the log of compound concentration, and "Y" is the response, which increases as X increases. Y starts at "bottom" and goes to "top" with a sigmoid shape.

- binding affinity with the mutated RORγt protein [1]: no binding affinity
- EC50 (hRORγt LBD): 119 nM
SMILES: CCS(=O)(=O)c1ccc(CC(=O)Nc2ccc(-c3ccc(CC(C)C)c(C#N)c3)c(C(F)(F)F)c2)cc1 [8-074]
- percentage of CD8+ T cells that express IL-17A [2]: 50.4%
